Tested on: 293T cells
Test: cells
Type: cell-based
Details: Homo sapiens, HEK-293T

| SMILES | IC50 (Table 2-2, 48 hours, CCK8) | IC50 (Table 4-3, CCK8) |
| --- | --- | --- |
| CCCCCCCCC(CCCCCC)C(=O)OCCCCCCN(CCCCO)CCCCCCOC(=O)C(CCCCCC)CCCCCCCC (stereo not shown) [ALC0315] | 145 µM | 145 µM |
| CCCCCCCC/C=C\CCCCCCCC(=O)OC[C@H](C[N+](C)(C)C)OC(=O)CCCCCCC/C=C\CCCCCCCC [DOTAP, N-(2,3-dioleoyloxy)propyl)-N,N,N-trimethylammonium chloride] | 40.7 µM | 40.7 µM |
